Measured values reported in US11827628B2, “Compositions and methods for inhibition of the JAK pathway” (Rigel Pharmaceuticals, Inc., priority 2005, dated 2023).
Like-named read-outs stand apart in the source and are kept apart here.

Columns and labels:
[1] = system: Primary human T-cells; assay: Primary Human T-Cell Proliferation Assay Stimulated with IL-2 (CellTiter-Glo); assay type: cell-based; conditions: read-out: IC50, Example 42
Summary of the method: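 IC50 derived from CellTiter-Glo ATP signal after 72 hours of IL-2-driven proliferation at 37° C. Cells: primary human T-cells from blood, stimulated beforehand 3-4 days on anti-CD3/anti-CD28 with IL-2, then rested from IL-2 before compound exposure in duplicate; IL-2-free wells served as unstimulated control.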

[2] = system: up-regulation of ICAM-1 (CD54) by IFNγ in A549 lung epithelial cells; assay: A549 Epithelial Line Stimulated with IFNγ (ICAM-1 surface expression, FACS); assay type: cell-based, human; conditions: ICAM-1 expression by FACS, read-out: IC50, Example 43
Summary of the method: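 ICAM-1 (CD54) flow cytometry on live-gated A549 cells, geometric mean versus dose giving EC50. Cells received IFNγ at 75 ng/mL for 24 h after a 1 h compound pre-treatment spanning 30 μM to 14 nM in medium with 5% FBS and 0.3% DMSO.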

[3] = primary human T-cell proliferation stimulated with IL-2
[4] = A549 epithelial line stimulated with IFNγ

IC50 [2, 4] | IC50 ([2]; A549 cells stimulated with IFNγ) | SMILES | IC50 [1, 3] | IC50 ([1]; primary human T-cells stimulated with IL-2, proliferation)
23800 nM | – | Cc1cc(Nc2nc(Nc3cccc(S(N)(=O)=O)c3)ncc2F)cc(C)c1OCC(N)=O [Compound I-93, N4-(4-Aminocarbonylmethoxy-3,5-dimethyl)phenyl-N2-(3-aminosulfonyl)phenyl-5-fluoro-2,4-pyrimidinediamine] | 1170 nM | –
48300 nM | – | NS(=O)(=O)c1cccc(Nc2ncc(F)c(Nc3ccc(Cn4ccnc4)cc3)n2)c1 [III-81, N2-(3-Aminosulfonylphenyl)-5-fluoro-N4-[4-(1-imidazolylmethyl)phenyl]-2,4-pyrimidinediamine] | 204 nM | –
– | – | CC(C)(C#N)Oc1ccc(Nc2nc(Nc3ccc(S(N)(=O)=O)cc3)ncc2F)cc1 [Compound I-75, N2-(4-Aminosulfonyl)phenyl-N4-[4-(1-cyano-1-methyl)ethoxy]phenyl-5-fluoro-2,4-pyrimidinediamine] | 3300 nM | –
4620 nM | – | Cc1ccc(Nc2ncc(F)c(Nc3ccc(OC(C)C#N)cc3)n2)cc1S(N)(=O)=O (racemic) [Compound I-67, Racemic N2-(3-Aminosulfonyl-4-methyl)phenyl-N4-[4-(1-cyano)ethoxy]phenyl-5-fluoro-2,4-pyrimidinediamine] | 157 nM | –
24200 nM | – | Cc1ccc(Nc2ncc(F)c(Nc3ccc(Cn4ccnc4)cc3)n2)cc1S(N)(=O)=O [III-82, N2-(3-Aminosulfonyl-4-methylphenyl)-5-fluoro-N4-[4-(1-imidazolylmethyl)phenyl]-2,4-pyrimidinediamine] | 160 nM | –
8580 nM | – | Cc1cc(Nc2nc(Nc3ccc(F)c(S(N)(=O)=O)c3)ncc2F)cc(C)c1OCC#N [Compound I-35, N2-(3-Aminosulfonyl-4-fluoro)phenyl-N4-(4-cyanomethoxy-3,5-dimethyl)phenyl-5-fluoro-2,4-pyrimidinediamine] | 1130 nM | –
– | – | Cc1cc(Nc2nc(Nc3cccc(S(N)(=O)=O)c3)ncc2F)ccc1OC(C)C#N (racemic) [Compound I-61, Racemic N2-(3-Aminosulfonyl)phenyl-N4-[4-(1-cyano)ethoxy-3-methyl]phenyl-5-fluoro-2,4-pyrimidinediamine] | 123 nM | –
3270 nM | – | Cc1cc(Nc2nc(Nc3cccc(S(N)(=O)=O)c3)ncc2F)cc(C)c1OC(C)C#N (racemic) [Compound I-71, Racemic N2-(3-Aminosulfonyl)phenyl-N4-[4-(1-cyano)ethoxy-3,5-dimethyl]phenyl-5-fluoro-2,4-pyrimidinediamine] | 136 nM | –
4960 nM | – | CC(C#N)Oc1ccc(Nc2nc(Nc3ccc(F)c(S(N)(=O)=O)c3)ncc2F)cc1 (racemic) [Compound I-68, Racemic N2-(3-Aminosulfonyl-4-fluoro)phenyl-N4-[4-(1-cyano)ethoxy]phenyl-5-fluoro-2,4-pyrimidinediamine] | 482 nM | –
– | – | CNS(=O)(=O)c1cc(Nc2ncc(F)c(Nc3ccc(Cn4ccnc4)cc3)n2)ccc1C [III-83, 5-Fluoro-N2-[3-(N-methylaminosulfony)-4-methylphenyl]-5-fluoro-N4-[4-(1-imidazolylmethyl)phenyl]-2,4-pyrimidinediamine] | 96.2 nM | –
– | – | Cc1ccc(Nc2ncc(F)c(Nc3ccc(OCC(N)=O)cc3)n2)cc1S(N)(=O)=O [Compound I-94, N4-(4-Aminocarbonylmethoxy)phenyl-N2-(3-aminosulfonyl-4-methyl)phenyl-5-fluoro-2,4-pyrimidinediamine] | 563 nM | –
– | – | Cc1cc(Nc2nc(Nc3cccc(S(N)(=O)=O)c3)ncc2F)ccc1OCC(N)=O [Compound I-92, N4-(4-Aminocarbonylmethoxy-3-methyl)phenyl-N2-(3-aminosulfonyl)phenyl-5-fluoro-2,4-pyrimidinediamine] | 543 nM | –
14900 nM | – | Cc1ccc(Nc2ncc(F)c(Nc3ccc(NC(=O)CC#N)c(Cl)c3)n2)cc1S(N)(=O)=O [Compound I-83, N2-(3-Aminosulfonyl-4-methylphenyl)-N4-[3-chloro-4-(N-cyanoacetyl)aminophneyl]-5-fluoro-2,4-pyrimidinediamine] | 1760 nM | –
– | – | Cc1ccc(Nc2ncc(F)c(Nc3ccc(OCC#N)cc3)n2)cc1S(=O)(=O)NC(=O)C(C)C [Compound I-37, N4-(4-Cyanomethyleneoxy)phenyl-5-fluoro-N2-(3-isobutyrylaminosulfonyl-4-methyl)phenyl-2,4-pyrimidinediamine] | 3680 nM | –
5560 nM | – | Cc1ccc(Nc2ncc(F)c(Nc3ccc(OC(C)(C)C#N)cc3)n2)cc1S(N)(=O)=O [Compound I-73, N2-(3-Aminosulfonyl-4-methyl)phenyl-N4-[4-(1-cyano-1-methyl)ethoxy]phenyl-5-fluoro-2,4-pyrimidinediamine] | 728 nM | –
5140 nM | – | CC(C)(C#N)Oc1ccc(Nc2nc(Nc3cccc(S(N)(=O)=O)c3)ncc2F)cc1 [Compound I-76, N2-(3-Aminosulfonyl)phenyl-N4-[4-(1-cyano-1-methyl)ethoxy]phenyl-5-fluoro-2,4-pyrimidinediamine] | 196 nM | –

IC50 [2, 4] | IC50 ([2]; A549 cells stimulated with IFNγ) | SMILES | IC50 [1, 3] | IC50 ([1]; primary human T-cells stimulated with IL-2, proliferation)
10800 nM | – | CC(C)(C#N)Oc1ccc(Nc2nc(Nc3ccc(F)c(S(N)(=O)=O)c3)ncc2F)cc1 [Compound I-74, N2-(3-Aminosulfonyl-4-fluoro)phenyl-N4-[4-(1-cyano-1-methyl)ethoxy]phenyl-5-fluoro-2,4-pyrimidinediamine] | 1500 nM | –
– | – | Cc1cc(Nc2nc(Nc3ccc(C)c(S(N)(=O)=O)c3)ncc2F)ccc1OCC(N)=O [Compound I-95, N4-(4-Aminocarbonylmethoxy-3-methyl)phenyl-N2-(3-aminosulfonyl-4-methyl)phenyl-5-fluoro-2,4-pyrimidinediamine] | 325 nM | –
3310 nM | – | Cc1ccc(Nc2ncc(F)c(Nc3cc(C)c(OC(C)C#N)c(C)c3)n2)cc1S(N)(=O)=O (racemic) [Compound I-72, Racemic N2-(3-Aminosulfonyl-4-methyl)phenyl-N4-[4-(1-cyano)ethoxy-3,5-dimethyl]phenyl-5-fluoro-2,4-pyrimidinediamine] | 303 nM | –
– | 2690 nM | Cc1ccc(Nc2ncc(F)c(Nc3ccc4c(c3)CCN4S(C)(=O)=O)n2)cc1S(N)(=O)=O [VII-61, N2-(3-Aminosulfonyl-4-methylphenyl)-5-fluoro-N4-[4-(1-methylsulfonyl)indolin-5-yl]-2,4-pyrimidinediamine] | – | 140 nM
3530 nM | – | Cc1cc(Nc2nc(Nc3ccc(C)c(S(N)(=O)=O)c3)ncc2F)ccc1OC(C)C#N (racemic) [Compound I-62, Racemic N2-(3-Aminosulfonyl-4-methyl)phenyl-N4-[4-(1-cyano)ethoxy-3-methyl]phenyl-5-fluoro-2,4-pyrimidinediamine] | 376 nM | –
4860 nM | – | N#CCOc1cccc(Nc2nc(Nc3cccc(S(N)(=O)=O)c3)ncc2F)c1 [Compound I-4, N2-(3-Aminosulfonyl)phenyl-N4-(3-cyanomethoxy)phenyl-5-fluoro-2,4-pyrimidinediamine] | 178 nM | –
5170 nM | – | COc1cc(Nc2ncc(F)c(Nc3ccc(OC(C)C#N)c(C)c3)n2)ccc1S(N)(=O)=O (racemic) [Compound I-64, Racemic N2-(4-Aminosulfonyl-3-methoxy)phenyl-N4-[4-(1-cyano)ethoxy-3-methyl]phenyl-5-fluoro-2,4-pyrimidinediamine] | 1880 nM | –
– | – | CC(C#N)Oc1ccc(Nc2nc(Nc3cccc(S(N)(=O)=O)c3)ncc2F)cc1 (racemic) [Compound I-65, Racemic N2-(3-Aminosulfonyl)phenyl-N4-[4-(1-cyano)ethoxy]phenyl-5-fluoro-2,4-pyrimidinediamine] | 47.3 nM | –
– | – | CNS(=O)(=O)c1cc(Nc2ncc(F)c(NCCc3ccc(-c4ccncc4)cc3)n2)ccc1C [III-78, 5-Fluoro-N2-[3-N-(methyl)aminosulfonyl-4-methylphenyl]-N4-[4-(4-pyridinyl)phenethyl]-2,4-pyrimidinediamine] | 204 nM | –
5640 nM | – | Cc1cc(Nc2nc(Nc3ccc(F)c(S(N)(=O)=O)c3)ncc2F)ccc1OC(C)C#N (racemic) [Compound I-69, Racemic N2-(3-Aminosulfonyl-4-fluoro)phenyl-N4-[4-(1-cyano)ethoxy-3-methyl]phenyl-5-fluoro-2,4-pyrimidinediamine] | 1030 nM | –
34300 nM | – | Cc1cc(Nc2nc(Nc3ccc(S(N)(=O)=O)cc3)ncc2F)cc(C)c1OC(C)C#N (racemic) [Compound I-63, Racemic N2-(4-Aminosulfonyl)phenyl-N4-[4-(1-cyano)ethoxy-3,5-dimethyl]phenyl-5-fluoro-2,4-pyrimidinediamine] | 1310 nM | –
– | – | CC(C#N)Oc1ccc(Nc2nc(Nc3ccc(S(N)(=O)=O)cc3)ncc2F)cc1 (racemic) [Compound I-66, Racemic N2-(4-Aminosulfonyl)phenyl-N4-[4-(1-cyano)ethoxy]phenyl-5-fluoro-2,4-pyrimidinediamine] | 287 nM | –
– | – | Cc1cc(Nc2nc(Nc3ccc(F)c(S(N)(=O)=O)c3)ncc2F)ccc1OCC#N [Compound I-34, N2-(3-Aminosulfonyl-4-fluoro)phenyl-N4-(4-cyanomethoxy-3-methyl)phenyl-5-fluoro-2,4-pyrimidinediamine] | 806 nM | –
– | – | Cc1ccc(Nc2ncc(F)c(Nc3cccc(OCC(N)=O)c3)n2)cc1S(N)(=O)=O [Compound I-90, N4-(3-Aminocarbonylmethoxy)phenyl-N2-(3-aminosulfonyl-4-methyl)phenyl-5-fluoro-2,4-pyrimidinediamine] | 2190 nM | –
– | – | Cc1cnc(Nc2ccc(S(N)(=O)=O)cc2)nc1Nc1ccc(OCC#N)cc1 [Compound I-57, N2-(4-Aminosulfonylphenyl)-N4-(4-cyanomethoxyphenyl-5)-methyl-2,4-pyrimidinediamine] | 53.1 nM | –
